This is an account of results in patent US20240116985A1, “STAPLED PEPTIDES AND METHODS THEREOF” (priority 2020, published 2024).

A word on the IC50: it is the concentration that inhibits the measured activity by half.

Assay [1] has as its target T1, full-length beta-Catenin (Uniprot ID P35222) (Homo sapiens, UniProt P35222).
T1 construct: 10 nM full-length beta-Catenin (Uniprot ID P35222)
T1 sequence (P35222 1-781): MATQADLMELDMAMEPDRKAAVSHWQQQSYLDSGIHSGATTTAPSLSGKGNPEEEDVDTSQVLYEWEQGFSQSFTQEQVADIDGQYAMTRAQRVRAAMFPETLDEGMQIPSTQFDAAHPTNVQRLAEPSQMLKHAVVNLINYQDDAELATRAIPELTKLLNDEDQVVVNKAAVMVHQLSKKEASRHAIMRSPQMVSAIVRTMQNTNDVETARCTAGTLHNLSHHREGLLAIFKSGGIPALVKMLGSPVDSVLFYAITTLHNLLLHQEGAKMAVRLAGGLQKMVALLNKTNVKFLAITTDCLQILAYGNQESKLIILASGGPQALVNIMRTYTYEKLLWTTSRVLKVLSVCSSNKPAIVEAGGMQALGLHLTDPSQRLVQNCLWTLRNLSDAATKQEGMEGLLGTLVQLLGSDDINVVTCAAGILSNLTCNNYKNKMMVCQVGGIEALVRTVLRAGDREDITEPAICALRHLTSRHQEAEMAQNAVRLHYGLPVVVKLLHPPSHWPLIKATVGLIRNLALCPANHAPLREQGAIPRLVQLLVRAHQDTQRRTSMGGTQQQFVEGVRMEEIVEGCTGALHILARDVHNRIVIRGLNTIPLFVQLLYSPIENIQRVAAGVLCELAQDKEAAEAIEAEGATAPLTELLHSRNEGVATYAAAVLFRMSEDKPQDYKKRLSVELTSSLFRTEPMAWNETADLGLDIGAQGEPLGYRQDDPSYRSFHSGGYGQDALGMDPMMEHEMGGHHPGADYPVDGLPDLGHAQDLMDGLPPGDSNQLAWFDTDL
Description: Fluorescence polarization IC50 (beta-catenin / 5FAM-TCF4 10-53 competition). The format is binding. The conditions noted are these: fluorescence polarization; read-out: beta-Catenin FP IC50. (In fluorescence polarisation assays a small probe gives low polarisation when free and higher when bound to something large.)

The target of assay [2] is T2, beta-catenin/TCF4 engagement (Homo sapiens, UniProt P35222).
T2 construct: expressed in transfected cells; host or cells: HEK293
T2 sequence (P35222 1-781): T1 sequence (P35222 1-781)
The experiment in a line: Nano-BRET target engagement assay (B-cat-Halo & TCF4-Luc in HEK293 cells). The format is cell-based. The conditions noted are these: absolute IC50; read-out: NanoBRET Abs IC50.

On to `COC(=O)C[C@@H]1NC(=O)[C@]2(CC=CCCCC3(CCCC=CCCCOC(=O)N4CC[C@@](C(=O)N[C@@H](Cc5ccsc5)C(=O)N[C@@H](Cc5csc6ccccc56)C(=O)N[C@@H](CCC(N)=O)C(N)=O)(C4)NC(=O)[C@H](CC(C)C)NC(=O)[C@H](Cc4ccccc4)NC(=O)[C@H](C)NC(=O)[C@H](C)NC(=O)[C@H](CC(=O)O)NC(=O)[C@H](CC(=O)O)NC3=O)NC(=O)[C@H](CC(C)(C)C)NC1=O)CCCN2C(C)=O` (stereo partly drawn) [I-2359, Ac-PL3-[Me]AspE-Npg-B5-Asp-Asp-Ala-Ala-Phe-Leu-PyrS2-3Thi-BztA-Gln-NH2], for which the IC50 was 0.424 µM in assay [1] and > 20 µM in assay [2].
The corresponding values for `COC(=O)C[C@@H]1NC(=O)C2(CCCC=CCCCOC(=O)N3CC[C@@](C(=O)N[C@@H](Cc4ccsc4)C(=O)N[C@@H](Cc4csc5ccccc45)C(=O)N[C@@H](CCC(N)=O)C(N)=O)(C3)NC(=O)[C@H](CC(C)C)NC(=O)[C@H](Cc3ccccc3)NC(=O)[C@H](C)NC(=O)[C@H](C)NC(=O)[C@H](CC(=O)O)NC1=O)CCCC=CC[C@]1(CCCN1C(C)=O)C(=O)N[C@@H](CC(=O)O)C(=O)N[C@@H](CC(C)(C)C)C(=O)N2` (stereo partly drawn) [I-2360, Ac-PL3-Asp-Npg-B5-[Me]AspE-Asp-Ala-Ala-Phe-Leu-PyrS2-3Thi-BztA-Gln-NH2] are 2.44 µM and > 20 µM.
In the same order, the values of `COC(=O)C[C@@H]1NC(=O)[C@H](CC(=O)O)NC(=O)C2(CCCC=CCCCOC(=O)N3CC[C@@](C(=O)N[C@@H](Cc4ccsc4)C(=O)N[C@@H](Cc4csc5ccccc45)C(=O)N[C@@H](CCC(N)=O)C(N)=O)(C3)NC(=O)[C@H](CC(C)C)NC(=O)[C@H](Cc3ccccc3)NC(=O)[C@H](C)NC(=O)[C@H](C)NC1=O)CCCC=CC[C@]1(CCCN1C(C)=O)C(=O)N[C@@H](CC(=O)O)C(=O)N[C@@H](CC(C)(C)C)C(=O)N2` (stereo partly drawn) [I-2361, Ac-PL3-Asp-Npg-B5-Asp-[Me]AspE-Ala-Ala-Phe-Leu-PyrS2-3Thi-BztA-Gln-NH2] are 0.349 µM and 36.7 µM.
On to `CC(=O)N1CCC[C@]12CC=CCCCC1(CCCC=CCCCOC(=O)N3CC[C@@](C(=O)N[C@@H](Cc4ccccc4C(F)(F)F)C(=O)N[C@@H](Cc4csc5ccccc45)C(=O)N[C@@H](C)C(N)=O)(C3)NC(=O)[C@H](CC(C)C)NC(=O)[C@H](Cc3ccccc3)NC(=O)[C@H](C)NC(=O)[C@H](CCC(N)=O)NC(=O)[C@H](Cn3cc(CCC(=O)O)nn3)NC(=O)[C@H](CC(=O)O)NC1=O)NC(=O)[C@H](CC(C)(C)C)NC(=O)[C@H](CC(=O)O)NC2=O` (stereo partly drawn) [I-2367, Ac-PL3-Asp-Npg-B5-Asp-[CH2CH2CO2H]TriAzDap-Gln-Ala-Phe-Leu-PyrS2-2F3MeF-BztA-Ala-NH2], for which the half-inhibitory concentration (IC50) in assay [1] is 0.007 µM; in assay [2] it was 6.2 µM.
In the same order, the values of `CC(=O)N1CCC[C@]12CC=CCCCC1(CCCC=CCCCOC(=O)N3CC[C@@](C(=O)N[C@@H](Cc4ccccc4C(F)(F)F)C(=O)N[C@@H](Cc4csc5ccccc45)C(=O)N[C@@H](C)C(N)=O)(C3)NC(=O)[C@H](CC(C)C)NC(=O)[C@H](Cc3ccccc3)NC(=O)[C@H](C)NC(=O)[C@H](CCC(N)=O)NC(=O)[C@H](Cn3cc(CC(C)(C)C(=O)O)nn3)NC(=O)[C@H](CC(=O)O)NC1=O)NC(=O)[C@H](CC(C)(C)C)NC(=O)[C@H](CC(=O)O)NC2=O` (stereo partly drawn) [I-2368, Ac-PL3-Asp-Npg-B5-Asp-[CH2CMe2CO2H]TriAzDap-Gln-Ala-Phe-Leu-PyrS2-2F3MeF-BztA-Ala-NH2] are 0.005 µM and 5 µM.
As for `CC(=O)N1CCC[C@]12CC=CCCCC1(CCCC=CCCCOC(=O)N3CC[C@@](C(=O)N[C@@H](Cc4ccccc4C(F)(F)F)C(=O)N[C@@H](Cc4csc5ccccc45)C(=O)N[C@@H](C)C(N)=O)(C3)NC(=O)[C@H](CC(C)C)NC(=O)[C@H](Cc3ccccc3)NC(=O)[C@H](C)NC(=O)[C@H](CCC(N)=O)NC(=O)[C@H](Cn3cc(C(C)(C)C(=O)O)nn3)NC(=O)[C@H](CC(=O)O)NC1=O)NC(=O)[C@H](CC(C)(C)C)NC(=O)[C@H](CC(=O)O)NC2=O` (stereo partly drawn) [I-2369, Ac-PL3-Asp-Npg-B5-Asp-[CMe2CO2H]TriAzDap-Gln-Ala-Phe-Leu-PyrS2-2F3MeF-BztA-Ala-NH2], the 50% inhibitory concentration (IC50) in assay [1] was determined as 0.014 µM; in assay [2], 9.5 µM.
The corresponding values for `CC(=O)N1CCC[C@]12CC=CCCCC1(CCCC=CCCCOC(=O)N3CC[C@@](C(=O)N[C@@H](Cc4ccccc4C(F)(F)F)C(=O)N[C@@H](Cc4csc5ccccc45)C(=O)N[C@@H](CO)C(N)=O)(C3)NC(=O)[C@H](CC(C)C)NC(=O)[C@H](Cc3ccccc3)NC(=O)[C@H](C)NC(=O)[C@H](C)NC(=O)[C@H](Cn3cc(CCC(=O)O)nn3)NC(=O)[C@H](CC(=O)O)NC1=O)NC(=O)[C@H](CC(C)(C)C)NC(=O)[C@H](CC(=O)O)NC2=O` (stereo partly drawn) [I-2371, Ac-PL3-Asp-Npg-B5-Asp-[CH2CH2CO2H]TriAzDap-Ala-Ala-Phe-Leu-PyrS2-2F3MeF-BztA-Ser-NH2] are 0.005 µM and 5 µM.
With `CC(=O)N1CCC[C@]12CC=CCCCC1(CCCC=CCCCOC(=O)N3CC[C@@](C(=O)N[C@@H](Cc4ccccc4C(F)(F)F)C(=O)N[C@@H](Cc4csc5ccccc45)C(=O)N[C@@H](CO)C(N)=O)(C3)NC(=O)[C@H](CC(C)C)NC(=O)[C@H](Cc3ccccc3)NC(=O)[C@H](C)NC(=O)[C@H](C)NC(=O)[C@H](Cn3cc(CC(=O)O)nn3)NC(=O)[C@H](CC(=O)O)NC1=O)NC(=O)[C@H](CC(C)(C)C)NC(=O)[C@H](CC(=O)O)NC2=O` (stereo partly drawn) [I-2373, Ac-PL3-Asp-Npg-B5-Asp-[CH2CO2H]TriAzDap-Ala-Ala-Phe-Leu-PyrS2-2F3MeF-BztA-Ser-NH2], the half-inhibitory concentration (IC50) in assay [1] stood at 0.005 µM; in assay [2] it was 4 µM.
Regarding `CCCc1cn(CCCC[C@H](NC(=O)[C@H](Cc2csc3ccccc23)NC(=O)[C@H](Cc2ccsc2)NC(=O)[C@]23CCN(C2)C(=O)OCCCC=CCCCC2(CCCC=CC[C@]4(CCCN4C(C)=O)C(=O)N[C@@H](CC(=O)O)C(=O)N[C@@H](CC(C)(C)C)C(=O)N2)C(=O)N[C@@H](CC(=O)O)C(=O)N[C@@H](CC(=O)O)C(=O)N[C@@H](C)C(=O)N[C@@H](C)C(=O)N[C@@H](Cc2ccccc2)C(=O)N[C@@H](CC(C)C)C(=O)N3)C(N)=O)nn1` (stereo partly drawn) [I-2375, Ac-PL3-Asp-Npg-B5-Asp-Asp-Ala-Ala-Phe-Leu-PyrS2-3Thi-BztA-[3C]TriAzLys-NH2], the IC50 was found to be 0.005 µM in assay [1] and 13.5 µM in assay [2].
Regarding `CC(=O)N1CCC[C@]12CC=CCCCC1(CCCC=CCCCOC(=O)N3CC[C@@](C(=O)N[C@@H](Cc4ccccc4C(F)(F)F)C(=O)N[C@@H](Cc4csc5ccccc45)C(=O)N[C@@H](CCC(N)=O)C(=O)N[C@@H](CC(C)C)C(=O)N[C@H](C(N)=O)C(C)C)(C3)NC(=O)[C@H](CC(C)C)NC(=O)[C@H](Cc3ccccc3)NC(=O)[C@H](C)NC(=O)[C@H](C)NC(=O)[C@H](Cc3cccc(C(=O)O)c3)NC(=O)[C@H](CC(=O)O)NC1=O)NC(=O)[C@H](CC(C)(C)C)NC(=O)[C@H](CC(=O)O)NC2=O` (stereo partly drawn) [I-2379, Ac-PL3-Asp-Npg-B5-Asp-3COOHF-Ala-Ala-Phe-Leu-PyrS2-2F3MeF-BztA-Gln-Leu-Val-NH2], the 50% inhibitory concentration (IC50) in assay [1] came to 0.246 µM; in assay [2], 5 µM.
In the same order, the values of `CC(=O)N1CCC[C@]12CC=CCCCC1(CCCC=CCCCOC(=O)N3CC[C@@](C(=O)N[C@@H](Cc4ccccc4C(F)(F)F)C(=O)N[C@@H](Cc4csc5ccccc45)C(=O)N[C@@H](CCC(N)=O)C(=O)N[C@@H](CC(C)C)C(=O)NC4(C(N)=O)CCCC4)(C3)NC(=O)[C@H](CC(C)C)NC(=O)[C@H](Cc3ccccc3)NC(=O)[C@H](C)NC(=O)[C@H](C)NC(=O)[C@H](Cc3cccc(C(=O)O)c3)NC(=O)[C@H](CC(=O)O)NC1=O)NC(=O)[C@H](CC(C)(C)C)NC(=O)[C@H](CC(=O)O)NC2=O` (stereo partly drawn) [I-2387, Ac-PL3-Asp-Npg-B5-Asp-3COOHF-Ala-Ala-Phe-Leu-PyrS2-2F3MeF-BztA-Gln-Leu-CyLeu-NH2] are 0.12 µM and 7.1 µM.
The corresponding values for `CC(=O)N1CCC[C@]12CC=CCCCC1(CCCC=CCCCOC(=O)N3CC[C@@](C(=O)N[C@@H](Cc4ccccc4C(F)(F)F)C(=O)N[C@@H](Cc4csc5ccccc45)C(=O)N[C@@H](CCC(N)=O)C(=O)N[C@@H](CC(C)C)C(=O)N[C@@H](Cc4ccc(O)cc4)C(N)=O)(C3)NC(=O)[C@H](CC(C)C)NC(=O)[C@H](Cc3ccccc3)NC(=O)[C@H](C)NC(=O)[C@H](C)NC(=O)[C@H](Cc3cccc(C(=O)O)c3)NC(=O)[C@H](CC(=O)O)NC1=O)NC(=O)[C@H](CC(C)(C)C)NC(=O)[C@H](CC(=O)O)NC2=O` (stereo partly drawn) [I-2392, Ac-PL3-Asp-Npg-B5-Asp-3COOHF-Ala-Ala-Phe-Leu-PyrS2-2F3MeF-BztA-Gln-Leu-Tyr-NH2] are 0.461 µM and 8.6 µM.
